Results as given in ChEMBL document CHEMBL5537122, “Design, synthesis, and biological evaluation of 4-(2-fluorophenoxy)-7-methoxyquinazoline derivatives as dual EGFR/c-Met inhibitors for the treatment of NSCLC” (Eur J Med Chem, 2024).
Active and inactive are the calls of the source. The calls are words filed in the database; no cut-off is given here.

Key:
[1] = Acute toxicity in KM mouse assessed as cell damage or necrosis in lung at 100 mg/kg, IG qa administered for 7 days and measured on day 8 by hematoxylin and eosin staining based assay; assay type: organism-based; details: in vivo, po, 192 h, time 8 day
A549 [2] = assay: Antiproliferative activity against human A549 cells overexpressing c-Met and EGFR assessed as reduction in cell viability incubated for 72 hrs by MTT assay; assay type: functional, cell-based; details: A549, 72 h
[3] = target: Serine/threonine-protein kinase Nek2 (Homo sapiens) (UniProt P51955); assay: Inhibition of NEK2 (unknown origin) at 10 uM
Sequence of Serine/threonine-protein kinase Nek2 (Homo sapiens) (P51955 whole entry): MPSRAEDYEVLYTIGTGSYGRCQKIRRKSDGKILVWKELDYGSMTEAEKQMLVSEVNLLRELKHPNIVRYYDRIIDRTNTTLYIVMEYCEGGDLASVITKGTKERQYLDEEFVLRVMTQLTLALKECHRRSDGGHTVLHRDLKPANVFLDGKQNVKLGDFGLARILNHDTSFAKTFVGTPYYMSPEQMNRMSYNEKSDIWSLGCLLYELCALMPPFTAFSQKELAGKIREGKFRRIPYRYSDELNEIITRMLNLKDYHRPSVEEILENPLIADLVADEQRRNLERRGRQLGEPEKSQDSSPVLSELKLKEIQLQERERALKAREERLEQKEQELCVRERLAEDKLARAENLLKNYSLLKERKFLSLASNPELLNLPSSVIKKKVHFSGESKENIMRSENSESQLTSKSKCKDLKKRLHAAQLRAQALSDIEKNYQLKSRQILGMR

A549 [4] = assay: Antitumor activity against human A549 cells overexpressing c-MET xenografted in BALB/c nude mouse assessed as tumor growth inhibition at 40 mg/kg, IG qod measured for 24 days relative to control; assay type: functional; details: A549, po, 576 h, time 24 day, read-out: TGI
L02 [5] = assay: Induction in apoptosis in human L02 cells assessed as necrotic cells at 2.5 uM incubated for 24 hrs by Annexin V-FITC/Propidium Iodide staining based flow cytometry analysis (reference value: 6.63 %); assay type: toxicity, cell-based; details: l02, 24 h
L02 [6] = assay: Induction in apoptosis in human L02 cells assessed as late apoptotic cells at 1 uM incubated for 24 hrs by Annexin V-FITC/Propidium Iodide staining based flow cytometry analysis (reference value: 0.36 %); assay type: toxicity, cell-based; details: l02, 24 h
[7] = Induction in apoptosis in human L02 cells assessed as viable cells at 2.5 uM incubated for 24 hrs by Annexin V-FITC/Propidium Iodide staining based flow cytometry analysis (reference value: 92.75 %); assay type: toxicity, cell-based; details: read-out: Activity
A549 [8] = assay: Induction in apoptosis in human A549 cells overexpressing c-MET assessed as late apoptotic cells at 2.5 uM incubated for 24 hrs by Annexin V-FITC/Propidium Iodide staining based flow cytometry analysis (reference value: 7.59 %); assay type: functional
[9] = target: Fibroblast growth factor receptor 2 (Homo sapiens) (UniProt P21802); assay: Inhibition of FGFR2 (unknown origin) at 10 uM
Sequence of Fibroblast growth factor receptor 2 (Homo sapiens) (P21802 22-821 limits assumed): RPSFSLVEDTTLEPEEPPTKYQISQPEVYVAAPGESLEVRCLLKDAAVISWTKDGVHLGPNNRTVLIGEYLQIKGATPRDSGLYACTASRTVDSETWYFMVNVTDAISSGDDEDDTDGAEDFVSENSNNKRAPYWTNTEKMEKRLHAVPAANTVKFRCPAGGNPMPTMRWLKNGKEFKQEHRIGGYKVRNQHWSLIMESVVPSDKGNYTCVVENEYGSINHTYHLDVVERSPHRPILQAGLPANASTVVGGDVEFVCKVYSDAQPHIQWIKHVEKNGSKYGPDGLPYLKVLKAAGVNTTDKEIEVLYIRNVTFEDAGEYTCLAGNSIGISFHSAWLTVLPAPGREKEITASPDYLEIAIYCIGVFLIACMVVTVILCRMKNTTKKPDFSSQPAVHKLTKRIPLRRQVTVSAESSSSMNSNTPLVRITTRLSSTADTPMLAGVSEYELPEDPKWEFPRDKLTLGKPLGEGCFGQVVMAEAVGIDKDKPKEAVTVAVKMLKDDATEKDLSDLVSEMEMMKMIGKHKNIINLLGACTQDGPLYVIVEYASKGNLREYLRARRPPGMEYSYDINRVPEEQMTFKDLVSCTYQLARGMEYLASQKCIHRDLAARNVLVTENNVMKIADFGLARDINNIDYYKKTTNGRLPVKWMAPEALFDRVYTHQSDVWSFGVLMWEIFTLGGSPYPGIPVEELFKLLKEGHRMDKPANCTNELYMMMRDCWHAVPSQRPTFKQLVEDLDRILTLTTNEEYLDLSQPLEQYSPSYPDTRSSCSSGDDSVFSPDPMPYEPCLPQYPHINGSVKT

PC-9 [10] = assay: Antiproliferative activity against human PC-9 cells overexpressing c-Met and EGFR assessed as reduction in cell viability incubated for 72 hrs by MTT assay; assay type: functional, cell-based; details: PC-9, 72 h
[11] = Cardiotoxicity in KM mouse assessed as effect on lactate dehydrogenase level at 100 mg/kg, IG qd administered for 7 days by automatic biochemical analyzer; assay type: toxicity, organism-based; details: in vivo, po, 168 h, time 7 day
[12] = target: Mitogen-activated protein kinase 1 (Homo sapiens) (UniProt P28482); assay: Inhibition of MAPK1 (unknown origin) at 10 uM
Sequence of Mitogen-activated protein kinase 1 (Homo sapiens) (P28482 whole entry): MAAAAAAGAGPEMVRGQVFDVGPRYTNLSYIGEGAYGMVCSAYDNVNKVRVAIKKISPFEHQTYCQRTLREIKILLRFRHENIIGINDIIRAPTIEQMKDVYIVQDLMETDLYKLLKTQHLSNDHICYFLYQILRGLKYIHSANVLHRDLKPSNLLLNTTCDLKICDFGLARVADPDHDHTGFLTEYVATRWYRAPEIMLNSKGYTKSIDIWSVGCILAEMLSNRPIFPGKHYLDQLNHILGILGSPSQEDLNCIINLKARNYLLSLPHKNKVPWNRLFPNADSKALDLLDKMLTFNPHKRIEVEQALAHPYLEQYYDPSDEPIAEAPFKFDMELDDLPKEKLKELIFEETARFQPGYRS

NCI-H1975 [13] = assay: Inhibition of colony formation in human NCI-H1975 cells preincubated for 48 hrs followed by media replacement for every 2 days for 14 days by crystal violet staining based microscopic analysis; assay type: functional, cell-based; details: dose 0.25-2 µM
[14] = target: ALK tyrosine kinase receptor (Homo sapiens) (UniProt Q9UM73); assay: Inhibition of ALK (unknown origin) at 10 uM
Sequence of ALK tyrosine kinase receptor (Homo sapiens) (Q9UM73 19-1620 limits assumed): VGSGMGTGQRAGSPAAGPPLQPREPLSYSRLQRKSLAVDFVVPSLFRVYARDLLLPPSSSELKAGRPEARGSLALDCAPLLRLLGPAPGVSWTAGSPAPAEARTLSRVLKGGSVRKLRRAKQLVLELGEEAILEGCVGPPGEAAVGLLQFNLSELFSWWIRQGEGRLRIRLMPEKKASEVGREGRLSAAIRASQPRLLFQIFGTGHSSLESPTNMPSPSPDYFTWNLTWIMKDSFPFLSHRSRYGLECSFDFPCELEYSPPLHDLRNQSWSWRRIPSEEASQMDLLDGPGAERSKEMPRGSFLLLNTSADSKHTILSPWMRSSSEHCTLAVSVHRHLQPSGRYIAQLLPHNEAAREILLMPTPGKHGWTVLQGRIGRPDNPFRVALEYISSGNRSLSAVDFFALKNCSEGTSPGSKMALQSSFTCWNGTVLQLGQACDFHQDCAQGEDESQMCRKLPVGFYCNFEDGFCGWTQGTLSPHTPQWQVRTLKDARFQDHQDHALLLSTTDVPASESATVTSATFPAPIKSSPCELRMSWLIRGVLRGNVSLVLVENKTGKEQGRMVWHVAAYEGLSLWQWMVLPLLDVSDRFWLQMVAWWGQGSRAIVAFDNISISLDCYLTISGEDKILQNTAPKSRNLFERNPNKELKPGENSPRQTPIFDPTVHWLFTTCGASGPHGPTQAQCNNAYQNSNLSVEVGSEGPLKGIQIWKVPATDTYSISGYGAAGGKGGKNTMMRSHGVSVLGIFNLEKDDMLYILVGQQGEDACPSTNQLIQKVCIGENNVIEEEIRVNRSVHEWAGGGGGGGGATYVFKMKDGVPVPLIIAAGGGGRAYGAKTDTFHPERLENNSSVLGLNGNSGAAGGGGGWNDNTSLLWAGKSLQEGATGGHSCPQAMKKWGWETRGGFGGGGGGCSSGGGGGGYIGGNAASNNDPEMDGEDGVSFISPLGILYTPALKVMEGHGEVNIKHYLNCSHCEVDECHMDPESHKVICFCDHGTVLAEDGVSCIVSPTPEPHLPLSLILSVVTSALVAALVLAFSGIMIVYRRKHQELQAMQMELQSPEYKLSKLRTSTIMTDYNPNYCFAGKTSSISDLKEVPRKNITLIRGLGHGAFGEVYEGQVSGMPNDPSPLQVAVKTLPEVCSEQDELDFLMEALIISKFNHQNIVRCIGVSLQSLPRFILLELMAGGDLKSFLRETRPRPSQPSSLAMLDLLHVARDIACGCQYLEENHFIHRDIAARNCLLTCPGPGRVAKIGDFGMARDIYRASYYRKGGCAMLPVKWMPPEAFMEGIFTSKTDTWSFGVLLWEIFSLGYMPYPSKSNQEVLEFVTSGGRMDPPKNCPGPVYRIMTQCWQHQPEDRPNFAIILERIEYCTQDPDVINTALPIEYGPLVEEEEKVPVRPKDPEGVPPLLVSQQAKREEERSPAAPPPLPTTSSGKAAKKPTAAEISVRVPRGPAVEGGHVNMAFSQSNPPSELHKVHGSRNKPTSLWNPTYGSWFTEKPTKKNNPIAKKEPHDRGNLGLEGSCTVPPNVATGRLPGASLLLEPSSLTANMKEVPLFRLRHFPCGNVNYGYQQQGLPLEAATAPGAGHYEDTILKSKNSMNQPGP

[15] = Acute toxicity in KM mouse assessed as effect on total protein level at 100 mg/kg, IG qd administered for 7 days by automatic biochemical analyzer; assay type: organism-based; details: in vivo, po, 168 h, time 7 day
NCI-H1975 [16] = assay: Antiproliferative activity against human NCI-H1975 cells overexpressing c-Met and EGFR assessed as reduction in cell viability incubated for 72 hrs by MTT assay; assay type: functional, cell-based; details: NCI-H1975, 72 h
PC-9 [17] = assay: Antimigratory activity against EGF-induced cell migration in serum starved human PC-9 cells assessed as increase in width of artificial gap incubated for 24 hrs by wound healing assay; assay type: functional, cell-based; details: dose 1-2.5 µM
A549 [18] = assay: Induction of cell cycle arrest in human A549 cells overexpressing c-MET assessed as accumulation of cells at G1/G0 phase at 1 uM incubated for 24 hrs by RNase A/propidium iodide staining based flow cytometric analysis (reference value: 49.24 %); assay type: functional
A549 [19] = assay: Induction in apoptosis in human A549 cells overexpressing c-MET assessed as early apoptotic cells at 2.5 uM incubated for 24 hrs by Annexin V-FITC/Propidium Iodide staining based flow cytometry analysis (reference value: 7.27 %); assay type: functional
[20] = target: Fibroblast growth factor receptor 4 (Homo sapiens) (UniProt P22455); assay: Inhibition of FGFR4 (unknown origin) at 10 uM
Sequence of Fibroblast growth factor receptor 4 (Homo sapiens) (P22455 22-802 limits assumed): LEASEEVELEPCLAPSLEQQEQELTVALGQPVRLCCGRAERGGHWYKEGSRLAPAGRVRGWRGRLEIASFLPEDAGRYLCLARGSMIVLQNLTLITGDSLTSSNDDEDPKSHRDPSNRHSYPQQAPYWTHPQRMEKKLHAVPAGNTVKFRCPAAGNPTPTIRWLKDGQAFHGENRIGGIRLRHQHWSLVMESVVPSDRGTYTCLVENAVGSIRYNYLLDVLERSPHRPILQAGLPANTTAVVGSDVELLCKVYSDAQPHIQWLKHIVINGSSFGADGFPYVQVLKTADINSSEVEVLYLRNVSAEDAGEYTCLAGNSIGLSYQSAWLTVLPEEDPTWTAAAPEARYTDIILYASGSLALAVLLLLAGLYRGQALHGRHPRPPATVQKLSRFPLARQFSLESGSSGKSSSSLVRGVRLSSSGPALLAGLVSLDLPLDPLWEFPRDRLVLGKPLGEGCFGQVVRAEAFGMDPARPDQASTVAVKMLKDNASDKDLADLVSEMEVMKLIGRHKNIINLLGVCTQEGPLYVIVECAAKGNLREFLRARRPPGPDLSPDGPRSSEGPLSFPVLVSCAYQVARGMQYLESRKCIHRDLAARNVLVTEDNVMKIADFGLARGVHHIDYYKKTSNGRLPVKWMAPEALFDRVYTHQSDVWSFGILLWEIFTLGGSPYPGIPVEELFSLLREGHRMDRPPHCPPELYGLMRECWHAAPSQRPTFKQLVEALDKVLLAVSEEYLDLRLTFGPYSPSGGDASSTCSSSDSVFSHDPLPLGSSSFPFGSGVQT

A549 [21] = assay: Induction of cell cycle arrest in human A549 cells overexpressing c-MET assessed as accumulation of cells at S phase at 2.5 uM incubated for 24 hrs by RNase A/propidium iodide staining based flow cytometric analysis (reference value: 37.87 %); assay type: functional
NCI-H1975 [22] = assay: Induction in apoptosis in human NCI-H1975 cells assessed as viable cells at 1 uM incubated for 24 hrs by Annexin V-FITC/Propidium Iodide staining based flow cytometry analysis (reference value: 91.58 %); assay type: functional; details: read-out: Activity

C=CC(=O)Nc1cc2c(Oc3ccc(NC(=O)n4c(=O)c(-c5ccccc5)c(C)n4C)cc3F)cccc2cc1OC
Activity [1]: Non-Toxic | IC50 (A549 [2]): 1060 nM | inhibition [3]: inactive | inhibition in vivo at 40 mg/kg (A549 [4]): 25% | Activity (L02 [5]): 4.53% | Activity (L02 [6]): 0.28% | viability at 24 h, 2.5 µM [7]: 95% | Activity (A549 [8]): 22.82% | inhibition [9]: inactive | IC50 (PC-9 [10]): 1050 nM | Activity [11]: Non-Toxic | inhibition [12]: inactive | inhibition (NCI-H1975 [13]): Dose-Dependent Effect | inhibition [14]: inactive | Activity [15]: Non-Toxic | IC50 (NCI-H1975 [16]): 1130 nM | Activity (PC-9 [17]): Dose-Dependent Effect | Activity (A549 [18]): 53.03% | Activity (A549 [19]): 10.44% | inhibition [20]: inactive | Activity (A549 [21]): 31.41% | viability at 1 µM (NCI-H1975 [22]): 88.2%
